Source: ChEMBL document CHEMBL1154899, “Synthesis and biological evaluation of caffeic acid 3,4-dihydroxyphenethyl ester” (J Nat Prod, 2010)

Columns and labels:
Assay type in all cases: functional
SW-620 [1] = assay: Antiproliferative activity against human SW620 cells assessed as cell growth at 50 uM by SRB assay; settings: read-out: Activity
Malme-3M = assay: Antiproliferative activity against human MALME-3M cells assessed as cell growth at 50 uM by SRB assay; settings: read-out: Activity
LOX IMVI = assay: Antiproliferative activity against human LOXIMVI cells assessed as cell growth at 5 uM by SRB assay; settings: read-out: Activity
ACHN = assay: Antiproliferative activity against human ACHN cells assessed as cell growth at 5 uM by SRB assay; settings: read-out: Activity
DU-145 = assay: Antiproliferative activity against human DU145 cells assessed as cell growth at 5 uM by SRB assay; settings: read-out: Activity
NCI/ADR-RES = assay: Antiproliferative activity against human NCI/ADR-RES cells assessed as cell growth at 500 uM by SRB assay; settings: read-out: Activity
[2] = Antiproliferative activity against human Hs 578T cells assessed as cell growth at 500 uM by SRB assay; settings: read-out: Activity
K562 [3] = assay: Antiproliferative activity against human K562 cells assessed as cell growth at 500 uM by SRB assay; settings: read-out: Activity
SR = assay: Antiproliferative activity against human SR cells assessed as cell growth at 500 uM by SRB assay; settings: read-out: Activity
K562 [4] = assay: Antiproliferative activity against human K562 cells by SRB assay
SF-295 = assay: Antiproliferative activity against human SF295 cells by SRB assay
SF-539 = assay: Antiproliferative activity against human SF539 cells by SRB assay
OVCAR-8 = assay: Antiproliferative activity against human OVCAR8 cells by SRB assay
UACC-257 = assay: Antiproliferative activity against human UACC257 cells assessed as cell growth at 0.5 uM by SRB assay; settings: read-out: Activity
HL-60(TB) = assay: Antiproliferative activity against human HL-60(TB) cells assessed as cell growth at 0.5 uM by SRB assay; settings: read-out: Activity
SW-620 [5] = assay: Antiproliferative activity against human SW620 cells assessed as cell growth at 0.5 uM by SRB assay; settings: read-out: Activity
MDA-MB-435 = assay: Antiproliferative activity against human MDA-MB-435 cells assessed as cell growth at 0.5 uM by SRB assay; settings: read-out: Activity
EKVX = assay: Antiproliferative activity against human EKVX cells assessed as cell growth at 5 uM by SRB assay; settings: read-out: Activity
HOP-62 = assay: Antiproliferative activity against human HOP62 cells assessed as cell growth at 5 uM by SRB assay; settings: read-out: Activity
NCI-H522 = assay: Antiproliferative activity against human NCI-H522 cells assessed as cell growth at 5 uM by SRB assay; settings: read-out: Activity
[6] = read-out: LC50 (the source's name)
[7] = read-out: pLC50 (the source's name) (converted)

With O=C(/C=C/c1ccc(O)c(O)c1)OCCc1ccc(O)c(O)c1 the growth at 50 µM (SW-620 [1]) was 98%, the growth at 50 µM (Malme-3M) was 102% and the growth at 5 µM (LOX IMVI) was 101%. It also gave a growth at 5 µM (ACHN) of 95%, a growth at 5 µM (DU-145) of 101% and a growth at 500 µM (NCI/ADR-RES) of 78%. The growth at 500 µM [2] was 67%, the growth at 500 µM (K562 [3]) was 9% and the growth at 500 µM (SR) was 20%. For the same compound, the GI50 (K562 [4]; read-out: GI50) was 1560 nM, the CC50 (K562 [4]; [6]) was > 50 µM and the TGI (K562 [4]; read-out: TGI) was 19.9 µM. For the same compound, the GI50 (K562 [4]; read-out: pGI50 (converted)) was 1550 nM, the CC50 (K562 [4]; [7]) was > 50.1 µM and the TGI (K562 [4]; read-out: pTGI (converted)) was 20 µM. For the same compound, the GI50 (SF-295; read-out: GI50) was 16.1 µM, the CC50 (SF-295; [6]) was > 50 µM and the TGI (SF-295; read-out: TGI) was > 50 µM. For the same compound, the GI50 (SF-295; read-out: pGI50 (converted)) was 16.2 µM, the CC50 (SF-295; [7]) was > 50.1 µM and the TGI (SF-295; read-out: pTGI) was > 50.1 µM. The GI50 (SF-539; read-out: GI50) was 5.83 µM, the CC50 (SF-539; [6]) was > 50 µM and the TGI (SF-539; read-out: TGI) was 24.2 µM. For the same compound, the GI50 (SF-539; read-out: pGI50 (converted)) was 5.89 µM, the CC50 (SF-539; [7]) was > 50.1 µM and the TGI (SF-539; read-out: pTGI (converted)) was 24 µM. The GI50 (OVCAR-8; read-out: GI50) was 9.32 µM, the CC50 (OVCAR-8; [6]) was > 50 µM and the TGI (OVCAR-8; read-out: TGI) was > 50 µM. The GI50 (OVCAR-8; read-out: pGI50 (converted)) was 9.33 µM, the CC50 (OVCAR-8; [7]) was > 50.1 µM and the TGI (OVCAR-8; read-out: pTGI) was > 50.1 µM. It also gave a growth at 0.5 µM (UACC-257) of 93%, a growth at 0.5 µM (HL-60(TB)) of 94% and a growth at 0.5 µM (SW-620 [5]) of 98%. For the same compound, the growth at 0.5 µM (MDA-MB-435) was 99%, the growth at 5 µM (EKVX) was 84% and the growth at 5 µM (HOP-62) was 89%. The growth at 5 µM (NCI-H522) was 89%.
